In patent publication US11814367B2, “Inhibitors of glycogen synthase 1 (GYS1) and methods of use thereof” (Maze Therapeutics, Inc., priority 2021, dated 2023) one finds IC50 data, which are given here for 15 compounds.

The structures appear in SMILES notation. pIC50: −log10 of the molar value. Where only a bound is given, the exact number is not on record here.

Test [1] relates to hGYS1 enzyme / glycogen synthesis in HeLa cells. The test is described as follows: GYS1 cell based assay (glycogen synthesis, Glucose-glo). Set-up: species or system human. Conditions: 24 h incubation, 20 mM glucose, geometric mean of at least 2 runs. The method, boiled down:
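HeLa cells starved 24 h in medium containing only 1× Glutamax were plated onto compound in medium with 20 mM glucose (1% DMSO final) for 24 h, 37 °C, 5% CO2. Acid lysates were Tris-quenched, glucoamylase-digested (pH 5.3, 1 h, 37 °C) and read by Glucose-glo luminescence. IC50 came from Hill fits, as geometric mean of ≥2 runs.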

Test [2] addresses hGYS1 enzyme (recombinant hGYS1/GN1 protein) (Homo sapiens (Human), UniProt P13807). The test is described as follows: GYS1 coupled enzyme assay (PK/LDH). Format: biochemical. To be noted: hGYS1/GN1 50 nM, UDP-Glucose 0.8 mM, G6P 1 mM; geometric mean of at least 2 runs.
Test [3] deals with hGYS2 enzyme (recombinant hGYS2/GN1 protein) (Homo sapiens (Human), UniProt P54840). The test is described as follows: GYS2 coupled enzyme assay (PK/LDH). Format: biochemical. Conditions: geometric mean of at least 2 assay runs on separate days, read-out: Avg_IC50. The method, boiled down: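 hGYS2/GN1 200 nM; UDP-Glc 2 mM; glycogen 0.2%; G6P 2 mM; PEP 2 mM, NADH 0.6 mM, PK/LDH 20 U/mL. 50 mM Tris pH 7.5, MgCl2, KCl, BSA, TCEP, 2.5% DMSO. Kinetic A340, 10 min. IC50 = geomean of ≥2 runs.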
Sequence of hGYS2 enzyme (recombinant hGYS2/GN1 protein) (P54840 whole entry): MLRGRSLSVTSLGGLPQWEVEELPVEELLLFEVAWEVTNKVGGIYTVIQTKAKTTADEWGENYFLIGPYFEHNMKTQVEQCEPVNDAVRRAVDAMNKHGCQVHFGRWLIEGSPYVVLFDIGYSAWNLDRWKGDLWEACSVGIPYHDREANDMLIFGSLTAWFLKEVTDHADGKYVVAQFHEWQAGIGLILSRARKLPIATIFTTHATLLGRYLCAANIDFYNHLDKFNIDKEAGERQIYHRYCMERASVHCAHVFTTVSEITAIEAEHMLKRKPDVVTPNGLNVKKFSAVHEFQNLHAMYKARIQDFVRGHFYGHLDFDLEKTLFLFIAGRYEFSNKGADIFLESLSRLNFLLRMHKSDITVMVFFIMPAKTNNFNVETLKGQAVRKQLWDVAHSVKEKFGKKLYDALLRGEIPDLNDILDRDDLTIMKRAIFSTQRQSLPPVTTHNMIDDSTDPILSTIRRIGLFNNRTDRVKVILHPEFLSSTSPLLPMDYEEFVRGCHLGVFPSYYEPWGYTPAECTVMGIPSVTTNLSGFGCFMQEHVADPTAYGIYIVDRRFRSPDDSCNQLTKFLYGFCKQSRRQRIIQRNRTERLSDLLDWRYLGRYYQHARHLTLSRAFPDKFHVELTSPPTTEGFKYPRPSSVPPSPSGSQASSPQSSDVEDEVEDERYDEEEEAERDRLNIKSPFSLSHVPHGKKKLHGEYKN
Sequence of hGYS2 enzyme (recombinant hGYS2/GN1 protein) (P46976 whole entry partner): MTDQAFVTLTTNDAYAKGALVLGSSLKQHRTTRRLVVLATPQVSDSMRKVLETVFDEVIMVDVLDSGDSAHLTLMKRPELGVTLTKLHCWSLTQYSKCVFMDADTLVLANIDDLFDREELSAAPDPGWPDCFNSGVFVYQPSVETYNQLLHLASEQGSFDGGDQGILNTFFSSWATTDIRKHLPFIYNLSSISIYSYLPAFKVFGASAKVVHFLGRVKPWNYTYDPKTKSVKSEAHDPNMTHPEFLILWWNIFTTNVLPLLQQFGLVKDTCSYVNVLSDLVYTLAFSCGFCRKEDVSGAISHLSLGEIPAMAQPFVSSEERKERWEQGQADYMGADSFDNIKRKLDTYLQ

Sequence of hGYS1 enzyme (recombinant hGYS1/GN1 protein) (P13807 whole entry): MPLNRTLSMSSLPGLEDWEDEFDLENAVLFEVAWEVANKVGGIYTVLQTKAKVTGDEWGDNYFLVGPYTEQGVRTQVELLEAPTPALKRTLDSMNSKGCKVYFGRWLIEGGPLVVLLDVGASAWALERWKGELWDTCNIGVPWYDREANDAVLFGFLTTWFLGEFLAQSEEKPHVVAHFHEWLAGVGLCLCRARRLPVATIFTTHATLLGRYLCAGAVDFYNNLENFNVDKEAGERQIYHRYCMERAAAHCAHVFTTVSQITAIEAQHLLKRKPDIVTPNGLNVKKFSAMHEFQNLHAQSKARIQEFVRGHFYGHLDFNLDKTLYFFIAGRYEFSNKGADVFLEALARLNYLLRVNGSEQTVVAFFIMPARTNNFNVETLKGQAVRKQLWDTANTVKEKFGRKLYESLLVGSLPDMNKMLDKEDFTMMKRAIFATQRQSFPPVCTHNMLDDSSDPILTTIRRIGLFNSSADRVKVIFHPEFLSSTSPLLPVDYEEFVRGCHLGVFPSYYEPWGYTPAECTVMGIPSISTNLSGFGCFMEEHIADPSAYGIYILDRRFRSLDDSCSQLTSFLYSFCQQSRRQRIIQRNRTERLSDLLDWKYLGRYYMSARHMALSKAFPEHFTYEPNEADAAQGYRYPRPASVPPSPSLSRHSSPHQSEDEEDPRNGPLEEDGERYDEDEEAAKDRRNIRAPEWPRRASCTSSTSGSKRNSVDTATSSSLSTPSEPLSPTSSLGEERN
Sequence of hGYS1 enzyme (recombinant hGYS1/GN1 protein) (P46976 whole entry partner): as the sequence (P46976 whole entry partner) above

Turning to `Cc1coc(CC(=O)N2C[C@H](F)C[C@H]2C(=O)N[C@@H](c2ccccc2)c2ccc(C3CC3)c(F)n2)n1` [Compound 314, (2S,4R)-N-[(S)-(5-cyclopropyl-6-fluoropyridin-2-yl)(phenyl)methyl]-4-fluoro-1-[2-(4-methyl-1,3-oxazol-2-yl)acetyl]pyrrolidine-2-carboxamide], the pIC50 in test [1] (Homo sapiens, HeLa, 24 h) was 6.00; in test [2], 7.20; in test [3], < 4.00.

As for `CC(C)c1ccc([C@@H](NC(=O)[C@@H]2CC[C@H](C)N2C(=O)Cc2cnn[nH]2)c2ccccc2)nc1` [Compound 280, (2S,5S)-5-methyl-N-[(S)-phenyl[5-(propan-2-yl)pyridin-2-yl]methyl]-1-[2-(1H-1,2,3-triazol-5-yl)acetyl]pyrrolidine-2-carboxamide], the pIC50 in test [1] (Homo sapiens, HeLa, 24 h) was 5.82; in test [2] it was 6.83; in test [3], < 4.00.

Regarding `CC(C(=O)N1C[C@H](F)C[C@H]1C(=O)N[C@@H](c1ccccc1)c1ccc(C2(C)CC2)c(F)c1)n1cnc2ccccc21` (single isomer, unassigned) [Compound 567, (2S,4R)-1-[(2R) or (2S)-2-(1H-1,3-benzodiazol-1-yl)propanoyl]-4-fluoro-N-[(S)-[3-fluoro-4-(1-methylcyclopropyl)phenyl](phenyl)methyl]pyrrolidine-2-carboxamide], the pIC50 is 4.94 in test [1], 6.19 in test [2] and < 4.00 in test [3].

With `Cc1cn(CC(=O)N2C[C@H](F)C[C@H]2C(=O)N[C@@H](c2ccccc2)c2ccc(C3CC(F)(F)C3)cn2)c(=O)[nH]c1=O` [Compound 535, (2S,4R)-N-[(S)-[5-(3,3-difluorocyclobutyl)pyridin-2-yl](phenyl)methyl]-4-fluoro-1-[2-(5-methyl-2,4-dioxo-1,2,3,4-tetrahydropyrimidin-1-yl)acetyl] pyrrolidine-2-carboxamide], the pIC50 in test [1] (Homo sapiens, HeLa, 24 h) is 5.91; in test [2], 7.92; in test [3], < 4.00.

With `Cc1ccc2c(CC(=O)N3C[C@H](F)C[C@H]3C(=O)N[C@@H](c3ccccc3)c3ccc(C(C)C)c(F)n3)cccc2n1` [Compound 387, (2S,4R)-4-fluoro-N-[(S)-[6-fluoro-5-(propan-2-yl)pyridin-2-yl](phenyl)methyl]-1-[2-(2-methylquinolin-5-yl)acetyl]pyrrolidine-2-carboxamide], the pIC50 in test [1] (Homo sapiens, HeLa, 24 h) is 7.52; in test [2], 8.30; in test [3], 4.44.

Take `CN(C)C(=O)NCC(=O)N1C[C@H](F)C[C@H]1C(=O)N[C@@H](c1ccccc1)c1ccc(C2CC(F)(F)C2)c(F)c1` [Compound 547, (2S,4R)-N-[(S)-[4-(3,3-difluorocyclobutyl)-3-fluorophenyl](phenyl)methyl]-1-{2-[(dimethylcarbamoyl)amino]acetyl}-4-fluoropyrrolidine-2-carboxamide]: the pIC50 in test [1] (Homo sapiens, HeLa, 24 h) was 6.44; in test [2], 7.80; in test [3], < 4.00.

As to `CC(C)c1ccc(C(NC(=O)[C@@H]2C[C@@H](F)CN2C(=O)Cc2ncco2)c2ccn[nH]2)nc1F` (single isomer, unassigned) [Compound 630, (2S,4R)-4-fluoro-N-[(S) or (R)-[6-fluoro-5-(propan-2-yl)pyridin-2-yl](1H-pyrazol-5-yl)methyl]-1-[2-(1,3-oxazol-2-yl)acetyl]pyrrolidine-2-carboxamide], the pIC50 in test [1] (Homo sapiens, HeLa, 24 h) was 5.67; in test [2] it was 7.04; in test [3] it was < 4.00.

Take `CC(C)c1ccc([C@@H](NC(=O)[C@@H]2C[C@@H](F)CN2C(=O)Cc2[nH]nnc2C(F)(F)F)c2ccccc2)nc1` [Compound 268, (2S,4R)-4-fluoro-N-[(S)-phenyl[5-(propan-2-yl)pyridin-2-yl]methyl]-1-{2-[4-(trifluoromethyl)-1H-1,2,3-triazol-5-yl]acetyl}pyrrolidine-2-carboxamide]: the pIC50 was 6.08 in test [1] (Homo sapiens, HeLa, 24 h); 7.74 in test [2]; < 4.00 in test [3].

For `O=C(NC(c1ccccc1)c1ccc(C2CCC2)c(F)c1)[C@@H]1C[C@@H](F)CN1C(=O)Cn1cnnn1` (single isomer, unassigned) [Compound 675, (2S,4R)-N-[(S) or (R)-(4-cyclobutyl-3-fluorophenyl) (phenyl)methyl]-4-fluoro-1-[2-(1H-1,2,3,4-tetrazol-1-yl)acetyl]pyrrolidine-2-carboxamide], the pIC50 in test [1] (Homo sapiens, HeLa, 24 h) was 5.95; in test [2], 7.00; in test [3], < 4.00.

As to `CC(C(=O)N1C[C@H](F)C[C@H]1C(=O)N[C@@H](c1ccccc1)c1ccc(C2CC2)c(F)c1)n1cnc2ccccc21` (single isomer, unassigned) [Compound 810, (2S,4R)-1-[(2R) or (2S)-2-(1H-1,3-benzodiazol-1-yl)propanoyl]-N-[(S)-(4-cyclopropyl-3-fluorophenyl)(phenyl)methyl]-4-fluoropyrrolidine-2-carboxamide], the pIC50 in test [1] was 5.28; in test [2], 6.45; in test [3], < 4.00.

For `CC(C)c1ccc([C@@H](NC(=O)[C@@H]2C[C@@H](F)CN2C(=O)Cc2cnn[nH]2)c2ccccc2)cc1C(F)F` [Compound 679, (2S,4R)-N-[(S)-[3-(difluoromethyl)-4-(propan-2-yl)phenyl](phenyl)methyl]-4-fluoro-1-[2-(1H-1,2,3-triazol-5-yl)acetyl]pyrrolidine-2-carboxamide], the pIC50 was 5.07 in test [1] (Homo sapiens, HeLa, 24 h); 6.24 in test [2]; < 4.00 in test [3].

In the case of `O=C(N[C@@H](c1ccccc1)c1ccc(C2CC(F)(F)C2)c(F)n1)[C@@H]1C[C@@H](F)CN1C(=O)Cn1cnc2ccccc21` [Compound 504, (2S,4R)-1-[2-(1H-1,3-benzodiazol-1-yl)acetyl]-N-[(S)-[5-(3,3-difluorocyclobutyl)-6-fluoropyridin-2-yl](phenyl)methyl]-4-fluoropyrrolidine-2-carboxamide], the pIC50 in test [1] (Homo sapiens, HeLa, 24 h) was 7.22; in test [2] it was 8.52; in test [3] it was < 4.00.

For `CC(C)c1ccc([C@@H](NC(=O)[C@@H]2C[C@@H](F)CN2C(=O)Cn2cnc3ccccc32)c2ccccc2)nc1` [Compound 248, (2S,4R)-1-[2-(1H-1,3-benzodiazol-1-yl)acetyl]-4-fluoro-N-[(S)-phenyl[5-(propan-2-yl)pyridin-2-yl]methy]pyrrolidine-2-carboxamide], the pIC50 is 6.70 in test [1] (Homo sapiens, HeLa, 24 h); 7.92 in test [2]; < 4.00 in test [3].

Turning to `CC(C)c1ccc([C@@H](NC(=O)[C@@H]2C[C@@H](F)CN2C(=O)Cc2nn(C)c(=O)[nH]2)c2ccccc2)nc1` [Compound 263, (2S,4R)-4-fluoro-1-[2-(1-methyl-5-oxo-4,5-dihydro-1H-1,2,4-triazol-3-yl)acetyl]-N-[(S)-phenyl[5-(propan-2-yl)pyridin-2-yl]methyl]pyrrolidine-2-carboxamide], the pIC50 in test [1] (Homo sapiens, HeLa, 24 h) is 5.71; in test [2], 7.10; in test [3] it was < 4.00.

For the compound `Cc1nn(CC(=O)N2C[C@H](F)C[C@H]2C(=O)N[C@@H](c2ccccc2)c2ccc(C(C)C)cn2)c(=O)o1` [Compound 275, (2S,4R)-4-fluoro-1-[2-(5-methyl-2-oxo-2,3-dihydro-1,3,4-oxadiazol-3-yl)acetyl]-N-N-[(S)-phenyl[5-(propan-2-yl)pyridin-2-yl]methyl]pyrrolidine-2-carboxamide], the pIC50 in test [1] (Homo sapiens, HeLa, 24 h) is 5.98; in test [2], 7.12; in test [3], < 4.00.
